{"source": "paper PMC7464785", "about": "(Pharmaceutics, 2020)", "key": {"[1]": {"assay": "Pharmacokinetics after 1-min intravenous infusion to control, G-ARF and C-ARF rats", "assay_type": "in vivo, Sprague–Dawley rats", "conditions": "for CLR estimated from free (unbound to plasma proteins) fractions in plasma: based on 20.7% plasma protein binding; for MRT / clearance / CL renal / half-life / Vd / AUC: Sprague-Dawley, rat, plasma, iv, 10 mg/kg; for clearance: read-out: CL (time-averaged total body clearance); for CL renal: read-out: CLR (time-averaged renal clearance); for half-life: read-out: Terminal half-life; for Vd: read-out: Vss; for AUC: time zero to infinity", "procedure": "Rats were randomly divided into three groups: control, G-ARF, and C-ARF rats. Acute renal failure was induced in rats by intraperitoneal injection of gentamicin (100 mg/kg, dissolved in 0.9% NaCl-injectable solution) daily for 8 days or by a single intraperitoneal injection of cisplatin (7.5 mg/kg, dissolved in 0.9% NaCl-injectable solution), while control rats were injected with 0.9% NaCl-injectable solution only. […] BUN (Blood urea nitrogen) levels were measured in rats on the last day of induction using a BUN detection kit (Asan Pharmaceutical, Seoul, Korea). Rats with a urea nitrogen level of 36 mg/dL or higher were considered to be acute renal failure-induced and were selected for the study.\nFor oral and intravenous administration, pretreatment and surgical procedures were performed as previously reported. For oral study, the rats were restricted from eating food overnight but water was freely accessible. The next day, after anesthesia with ketamine at a dose of 100 mg/kg, polyethylene 50 tubes (Clay Adams, Parsippany, NJ, USA) was cannulated into the carotid artery for blood collection. For intravenous study, polyethylene 50 tubes were cannulated into the carotid artery and jugular vein for blood collection and drug administration, respectively. After surgery, rats were allowed to rest for 2–3 h to recover from anesthesia and were free in the individual metabolic cage during the experiment.\nBlood samples (110 μL) were collected through the carotid artery at 0 (prior to drug infusion), 1 (at the end of drug infusion), 5, 15, 30, 45, 60, 90, 120, 180, 240, 360, 480, 600, and 720 min and were centrifuged at 8000 × g for 1 min. […] After collecting each blood sample, 0.3 mL of heparinized 0.9% NaCl-injectable solution (10 IU/mL) was immediately administered to the carotid artery to prevent blood clotting. At 24 h, the rat’s abdomen was open and the entire gastrointestinal tract was removed, transferred to a beaker with 50 mL of methanol, and cut into small pieces.\nAt 24 h after drug administration, urine samples were also collected. The metabolic cage was rinsed with 20 mL of distilled water, which was combined with the 24-h urine sample.\nA 50-μL aliquot of biological sample was mixed with 1 μL hydrocortisone (5 mg/mL); then, 20 μL of 20% ammonia solution was added, mixed with a vortex-mixer (Scientific Industries, Bohemia, NY, USA) for 30 s, and extracted with 750 µL ethyl acetate. The organic layer was collected, evaporated on a thermobath (Eyela, Tokyo, Japan) under a gentle stream of nitrogen gas at 40 °C and redissolved by adding 130 µL 20% acetonitrile, and 50 µL of each reconstituted sample was analyzed by HPLC [12, 22].\nThe reconstituted biological samples were filtered through a 0.45-µm filter (Millipore, Billerica, MA, USA) and analyzed with a reversed-phase column (C18; 25 cm × 4.6 mm, 5 µm; Young Jin Biochrom, Seongnam, Korea) using a UV detector at 287 nm. The mobile phase consisted of 10 mM ammonium acetate buffer (pH 5.0) and acetonitrile at a ratio of 69.5:30.5 (v/v) with a flow rate of 1.0 mL/min.\nTo estimate pharmacokinetic parameters such as terminal half-life, the apparent volume of distribution at steady state (Vss), area under plasma concentration-time curves from time zero to time infinity (AUC), mean residence time (MRT), and time-averaged total body (CL), and renal (CLR) and nonrenal (CLNR) clearances, standard methods were applied using noncompartmental analysis (WinNonlin, Pharsight Corporation, Mountain View, CA, USA). AUCs were calculated using the trapezoidal rule-extrapolation method. The peak plasma concentration (Cmax) and time that the plasma concentration was peak (Tmax) were directly confirmed from plasma concentration-time curves."}, "[2]": {"system": "hepatic microsomes"}, "[3]": {"system": "plasma proteins", "assay": "Plasma protein binding by equilibrium dialysis", "assay_type": "in vitro ADME", "conditions": "plasma from control, G-ARF and C-ARF rats; data not shown"}, "[4]": {"conditions": "hepatic microsomes of G-ARF rats, not significantly different"}}, "note": "Where two headings read alike, the source gives them in different places.", "data": [{"smiles": "C[C@@H]1CCN(C(=O)CC#N)C[C@@H]1N(C)c1ncnc2[nH]ccc12", "note": "[tofacitinib, Tofacitinib]", "values": [{"measurement": "Ae0–24 h (dose excreted in the 24-h urine)", "setting": "[1]; C-ARF rats, iv 10 mg/kg", "result": "0.458 ± 0.626 % of dose"}, {"measurement": "GI24 h (dose remaining in the gastrointestinal tract at 24 h)", "setting": "[1]; C-ARF rats, iv 10 mg/kg", "result": "0.195 ± 0.157 % of dose"}, {"measurement": "decrease of Ae0–24 h versus control rats", "setting": "[1]; C-ARF rats, iv 10 mg/kg", "result": 95.2, "unit": "%"}, {"measurement": "decrease of CL versus control rats", "setting": "[1]; C-ARF rats, iv 10 mg/kg", "result": 62.3, "unit": "%"}, {"measurement": "decrease of CLNR versus control rats", "setting": "[1]; C-ARF rats, iv 10 mg/kg", "result": 57.4, "unit": "%"}, {"measurement": "decrease of CLR versus control rats", "setting": "[1]; C-ARF rats, iv 10 mg/kg", "result": 98.6, "unit": "%"}, {"measurement": "increase of AUC versus control rats", "setting": "[1]; C-ARF rats, iv 10 mg/kg", "result": 163, "unit": "%"}, {"measurement": "increase of MRT versus control rats", "setting": "[1]; C-ARF rats, iv 10 mg/kg", "result": 154, "unit": "%"}, {"measurement": "increase of terminal half-life versus control rats", "setting": "[1]; C-ARF rats, iv 10 mg/kg", "result": 240, "unit": "%"}, {"measurement": "CLR estimated from free (unbound to plasma proteins) fractions in plasma", "setting": "[1]; C-ARF rats, iv 10 mg/kg", "result": 0.00514, "unit": "L/h/kg"}, {"measurement": "Ae0–24 h (dose excreted in the 24-h urine)", "setting": "[1]; G-ARF rats, iv 10 mg/kg", "result": "5.92 ± 2.76 % of dose"}, {"measurement": "GI24 h (dose remaining in the gastrointestinal tract at 24 h)", "setting": "[1]; G-ARF rats, iv 10 mg/kg", "result": "0.00919 ± 0.0225 % of dose"}, {"measurement": "decrease of Ae0–24 h versus control rats", "setting": "[1]; G-ARF rats, iv 10 mg/kg", "result": 37.7, "unit": "%"}, {"measurement": "decrease of CL versus control rats", "setting": "[1]; G-ARF rats, iv 10 mg/kg", "result": 37.7, "unit": "%"}, {"measurement": "decrease of CLNR versus control rats", "setting": "[1]; G-ARF rats, iv 10 mg/kg", "result": 33.2, "unit": "%"}, {"measurement": "decrease of CLR versus control rats", "setting": "[1]; G-ARF rats, iv 10 mg/kg", "result": 69.5, "unit": "%"}, {"measurement": "increase of AUC versus control rats", "setting": "[1]; G-ARF rats, iv 10 mg/kg", "result": 64.0, "unit": "%"}, {"measurement": "increase of MRT versus control rats", "setting": "[1]; G-ARF rats, iv 10 mg/kg", "result": 96.7, "unit": "%"}, {"measurement": "increase of terminal half-life versus control rats", "setting": "[1]; G-ARF rats, iv 10 mg/kg", "result": 78.7, "unit": "%"}, {"measurement": "CLR estimated from free (unbound to plasma proteins) fractions in plasma", "setting": "[1]; G-ARF rats, iv 10 mg/kg", "result": 0.11, "unit": "L/h/kg"}, {"measurement": "MRT", "setting": "[1]; C-ARF rats", "result": 1.15, "unit": "h"}, {"measurement": "clearance", "setting": "[1]; C-ARF rats", "result": "0.882 ± 0.137", "unit": "L/h/kg"}, {"measurement": "CL renal", "setting": "[1]; C-ARF rats", "result": "0.00407 ± 0.0055", "unit": "L/h/kg"}, {"measurement": "half-life", "setting": "[1]; C-ARF rats", "result": "2.23 ± 0.682", "unit": "h"}, {"measurement": "Vd", "setting": "[1]; C-ARF rats", "result": "1 ± 0.558", "unit": "L/kg"}, {"measurement": "AUC", "setting": "[1]; C-ARF rats", "result": 11.6, "unit": "µg·h/mL"}, {"measurement": "MRT", "setting": "[1]; G-ARF rats", "result": 0.892, "unit": "h"}, {"measurement": "clearance", "setting": "[1]; G-ARF rats", "result": "1.46 ± 0.417", "unit": "L/h/kg"}, {"measurement": "CL renal", "setting": "[1]; G-ARF rats", "result": "0.087 ± 0.0924", "unit": "L/h/kg"}, {"measurement": "half-life", "setting": "[1]; G-ARF rats", "result": "1.17 ± 0.493", "unit": "h"}, {"measurement": "Vd", "setting": "[1]; G-ARF rats", "result": "1.17 ± 0.519", "unit": "L/kg"}, {"measurement": "AUC", "setting": "[1]; G-ARF rats", "result": 7.22, "unit": "µg·h/mL"}, {"measurement": "MRT", "setting": "[1]; control rats", "result": 0.453, "unit": "h"}, {"measurement": "clearance", "setting": "[1]; control rats", "result": "2.34 ± 0.478", "unit": "L/h/kg"}, {"measurement": "half-life", "setting": "[1]; control rats", "result": "0.657 ± 0.188", "unit": "h"}, {"measurement": "Vd", "setting": "[1]; control rats", "result": "1.04 ± 0.402", "unit": "L/kg"}, {"measurement": "AUC", "setting": "[1]; control rats", "result": 4.4, "unit": "µg·h/mL"}, {"measurement": "Ae0–24 h (dose excreted in the 24-h urine)", "setting": "[1]; control rats, iv 10 mg/kg", "result": "9.51 ± 0.879 % of dose"}, {"measurement": "CLR (time-averaged renal clearance)", "setting": "[1]; control rats, iv 10 mg/kg", "result": "0.285 ± 0.0768", "unit": "L/h/kg"}, {"measurement": "GI24 h (dose remaining in the gastrointestinal tract at 24 h)", "setting": "[1]; control rats, iv 10 mg/kg", "result": "0.153 ± 0.306 % of dose"}, {"measurement": "CLR estimated from free (unbound to plasma proteins) fractions in plasma", "setting": "[1]; control rats, iv 10 mg/kg", "result": 0.359, "unit": "L/h/kg"}, {"measurement": "decrease of Vmax for the disappearance of tofacitinib versus control rats", "setting": "[2]; hepatic microsomes of C-ARF rats, not significantly different", "result": 28.7, "unit": "%"}, {"measurement": "decrease of CLint for the disappearance of tofacitinib versus control rats", "setting": "[2]; hepatic microsomes of C-ARF rats, significantly lower", "result": 54.4, "unit": "%"}, {"measurement": "decrease of CLint for the disappearance of tofacitinib versus control rats", "setting": "[2]; [4]", "result": 31.1, "unit": "%"}, {"measurement": "decrease of Vmax for the disappearance of tofacitinib versus control rats", "setting": "[2]; [4]", "result": 9.52, "unit": "%"}, {"measurement": "Km values, comparison of groups", "setting": "[2]; hepatic microsomes of control, G-ARF and C-ARF rats", "result": "comparable among the three groups"}, {"measurement": "free fractions in the plasma, comparison of groups", "setting": "[3]", "result": "comparable"}]}]}
